The values below come from ChEMBL document CHEMBL1201862, “PubChem BioAssay data set” (2004).

Molecules are shown by their SMILES.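 These data come from cells grown in 96-well plates and exposed to compound for 48 hours at five concentrations. GI50 = concentration required for 50% inhibition of growth.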 Calls of active or inactive are those of the source. Cut-off read from the data, not from the text of the source: active = GI50 up to about 1.1 µM and inactive = higher. A value given as a limit tells only on which side of the number the result lay.

Among the test systems are KM12; NCI/ADR-RES; IGROV-1; A498; Hs-578T; MDA-MB-435; NCI-H522; SNB-19; LOX IMVI; BT-549; RXF 393; U-251; Malme-3M; 786-0; SF-539; ACHN; UO-31; CAKI-1; HL-60; HCC 2998.
Common to all, as to experiment: NCI anticancer screen, dose series, 48 h

With `O=[N+]([O-])/C(C(Cl)=C(Cl)Cl)=C(\N1CCCCC1)n1nnc2ccccc21`, the GI50 in the test with KM12 was 25.8 µM (inactive); with NCI/ADR-RES, 29.6 µM (inactive); in the test with IGROV-1 it was 16.2 µM (inactive); with A498, 19.2 µM (inactive); in the test with Hs-578T, 32.9 µM (inactive); in the test on MDA-MB-435, 31.6 µM (inactive). Besides, the GI50 was 20.3 µM (inactive) with NCI-H522; 20.9 µM (inactive) in the test with SNB-19; 16.7 µM (inactive) in the test with LOX IMVI; 23.3 µM (inactive) with BT-549; 16.3 µM (inactive) in the test with RXF 393; 16.9 µM (inactive) in the test with U-251. In addition, the GI50 in the test on Malme-3M is 21.6 µM (inactive); in the test with 786-0, 18.5 µM (inactive); with SF-539, 17.3 µM (inactive); with ACHN, 19.7 µM (inactive); with UO-31, 18.2 µM (inactive); with CAKI-1 it was 15.3 µM (inactive).

For the compound `O=C(O)c1nc2ccccc2nc1NCc1ccc(F)cc1`, the GI50 was 47.1 µM (inactive) in the test with KM12; 45.8 µM (inactive) in the test on HL-60; 30.2 µM (inactive) with NCI/ADR-RES; 46.6 µM (inactive) in the test on IGROV-1; > 100 µM (inactive) in the test on A498; 61.8 µM (inactive) in the test on Hs-578T. For the same compound, the GI50 in the test with MDA-MB-435 was > 100 µM (inactive); in the test with NCI-H522, 48.9 µM (inactive); in the test on SNB-19 it was 47.5 µM (inactive); in the test with LOX IMVI it was 36.8 µM (inactive); with BT-549, > 100 µM (inactive); in the test on RXF 393, > 100 µM (inactive). Further, the GI50 with U-251 was 52.7 µM (inactive); with HCC 2998, 99.1 µM (inactive); with 786-0 it was 42.8 µM (inactive); in the test with SF-539, > 100 µM (inactive); in the test with UO-31, 45.3 µM (inactive); with CAKI-1 it was 62.4 µM (inactive).

`Cc1nc([N+](=O)[O-])cn1-c1nc2ccccn2c1[N+](=O)[O-]`: the GI50 in the test with KM12 was 48.8 µM (inactive); with NCI/ADR-RES it was > 100 µM (inactive); in the test with IGROV-1, 68.9 µM (inactive); in the test on A498, > 100 µM (inactive); in the test with Hs-578T, > 100 µM (inactive); in the test on MDA-MB-435 it was > 100 µM (inactive). Besides, the GI50 in the test with NCI-H522 was 55 µM (inactive); in the test on SNB-19 it was 80.2 µM (inactive); in the test with BT-549, > 100 µM (inactive); in the test on RXF 393, 17.7 µM (inactive); in the test with U-251 it was 53.2 µM (inactive); with HCC 2998 it was 41.2 µM (inactive). Also, the GI50 was 43.8 µM (inactive) in the test on Malme-3M; 61.7 µM (inactive) in the test on 786-0; 68.2 µM (inactive) in the test on SF-539; > 100 µM (inactive) in the test on ACHN; 88.5 µM (inactive) in the test on UO-31; 53.5 µM (inactive) in the test with CAKI-1.

`c1ccc(/C(=N/Nc2nc3ccccc3s2)C2CCCCC2)nc1`: the GI50 was 10 µM (inactive) in the test on KM12; 2.58 µM (inactive) in the test with NCI/ADR-RES; 4.43 µM (inactive) in the test with IGROV-1; 16.6 µM (inactive) with A498; 19.6 µM (inactive) in the test with Hs-578T; 14.8 µM (inactive) with MDA-MB-435. The GI50 with NCI-H522 is 2.76 µM (inactive); in the test on SNB-19 it was 13.2 µM (inactive); with LOX IMVI it was 13.6 µM (inactive); in the test on BT-549, 18.6 µM (inactive); in the test with RXF 393, 11.7 µM (inactive); in the test on U-251 it was 11.3 µM (inactive). Also, the GI50 was < 0.01 µM (active) in the test with HCC 2998; 4.13 µM (inactive) with Malme-3M; 7.29 µM (inactive) with 786-0; 13.8 µM (inactive) in the test with SF-539; 6.58 µM (inactive) in the test on ACHN; 3.04 µM (inactive) in the test on UO-31. The GI50 with CAKI-1 was 6.95 µM (inactive).

Turning to `Nc1ccc(S(=O)(=O)NCc2nccs2)cc1`, the GI50 in the test with KM12 was 20.9 µM (inactive); in the test on HL-60, 20.4 µM (inactive); in the test with NCI/ADR-RES, 23.8 µM (inactive); in the test on IGROV-1, 23.4 µM (inactive); with A498, 17.7 µM (inactive); in the test on Hs-578T, 27.3 µM (inactive). The GI50 is 19.6 µM (inactive) in the test on MDA-MB-435; 16.6 µM (inactive) in the test with NCI-H522; 29.1 µM (inactive) in the test with SNB-19; 19.9 µM (inactive) in the test with LOX IMVI; 20.1 µM (inactive) in the test with BT-549; 29.9 µM (inactive) in the test on RXF 393. Besides, the GI50 in the test with U-251 was 21.8 µM (inactive); in the test on 786-0, 28.3 µM (inactive); in the test with SF-539, 19.1 µM (inactive); in the test with ACHN, 23.4 µM (inactive); in the test on UO-31, 22.3 µM (inactive); with CAKI-1, 28.4 µM (inactive).

`CNC(=O)CNC(=O)CCC(=O)N(C)C`: the GI50 in the test on KM12, in the test with HL-60, with NCI/ADR-RES, in the test on IGROV-1, in the test with A498 and with Hs-578T was > 100 µM (inactive) each time. Further, the GI50 in the test on MDA-MB-435, with NCI-H522, in the test on SNB-19, with LOX IMVI, in the test on BT-549 and in the test with U-251 was > 100 µM (inactive) in each case. For the same compound, the GI50 with HCC 2998, in the test on Malme-3M, in the test on 786-0, in the test with SF-539, in the test with ACHN and with UO-31 was > 100 µM (inactive) throughout. The GI50 with CAKI-1 was > 100 µM (inactive).

With `CC1=C2C(=O)NN=C2CCN1c1ccc(Br)cc1`, the GI50 in the test with KM12 is > 100 µM (inactive); in the test with HL-60, 41.3 µM (inactive); in the test with NCI/ADR-RES, > 100 µM (inactive); with IGROV-1, > 100 µM (inactive); with A498, 68.7 µM (inactive); in the test with Hs-578T it was > 100 µM (inactive). The GI50 in the test on MDA-MB-435 is > 100 µM (inactive); in the test with NCI-H522 it was > 100 µM (inactive); in the test on SNB-19, > 100 µM (inactive); in the test with LOX IMVI it was 62.8 µM (inactive); with BT-549 it was 3.14 µM (inactive); in the test with U-251 it was > 100 µM (inactive). In addition, the GI50 is 35.3 µM (inactive) in the test on Malme-3M; > 100 µM (inactive) in the test with 786-0; > 100 µM (inactive) with SF-539; > 100 µM (inactive) in the test on ACHN; 54.3 µM (inactive) with UO-31; > 100 µM (inactive) in the test on CAKI-1.

Turning to `CN(/N=C/c1ccc(Cl)c(Cl)c1)C1=NCCCCN1`, the GI50 with KM12 is 19.6 µM (inactive); in the test with HL-60, 19.3 µM (inactive); in the test with NCI/ADR-RES, 66.8 µM (inactive); in the test on IGROV-1 it was 52.6 µM (inactive); in the test on A498 it was 18.2 µM (inactive); with Hs-578T, 61 µM (inactive). Also, the GI50 in the test with MDA-MB-435 is 16.3 µM (inactive); in the test on NCI-H522, 17.8 µM (inactive); in the test on SNB-19, 45.4 µM (inactive); in the test with LOX IMVI it was 13.2 µM (inactive); in the test on BT-549, 31 µM (inactive); in the test with U-251, 26.6 µM (inactive). The GI50 in the test with HCC 2998 is 24.9 µM (inactive); in the test on Malme-3M it was 17.8 µM (inactive); with 786-0 it was 20.6 µM (inactive); in the test with SF-539, 29.3 µM (inactive); in the test with ACHN, 44.6 µM (inactive); in the test on CAKI-1 it was 23.9 µM (inactive).

`CSc1ccc(/C=C/C(=O)c2nc3ccccc3[nH]2)cc1`: the GI50 in the test on KM12 was 14.5 µM (inactive); in the test with HL-60, 12.1 µM (inactive); in the test with NCI/ADR-RES, 20.1 µM (inactive); in the test on IGROV-1, 30.3 µM (inactive); in the test on A498, 13.6 µM (inactive); in the test on Hs-578T, 37.2 µM (inactive). The GI50 in the test with MDA-MB-435 is 6.22 µM (inactive); in the test with NCI-H522, 12.2 µM (inactive); with SNB-19, 16.1 µM (inactive); in the test with LOX IMVI it was 14.5 µM (inactive); with BT-549, 14.8 µM (inactive); with HCC 2998 it was 10.7 µM (inactive). Further, the GI50 in the test on Malme-3M was 44.7 µM (inactive); in the test on 786-0 it was 12.7 µM (inactive); with SF-539 it was 4.45 µM (inactive); with ACHN, 18.9 µM (inactive); with UO-31 it was 3.66 µM (inactive); in the test with CAKI-1, 2.26 µM (inactive).

For `Cc1nc2ccc(NC(=S)Nc3ccccc3)cc2c(=O)n1-c1ccccc1`, the GI50 in the test with KM12 is > 100 µM (inactive); in the test with HL-60, 31.8 µM (inactive); with NCI/ADR-RES it was > 100 µM (inactive); in the test on IGROV-1, > 100 µM (inactive); with A498 it was > 100 µM (inactive); in the test on Hs-578T, > 100 µM (inactive). For the same compound, the GI50 in the test with MDA-MB-435, in the test with NCI-H522, in the test with SNB-19, with LOX IMVI, with BT-549 and in the test with RXF 393 was > 100 µM (inactive) each time. Also, the GI50 in the test with U-251 is 57.7 µM (inactive); in the test with HCC 2998, 66.4 µM (inactive); in the test with Malme-3M it was > 100 µM (inactive); with 786-0, > 100 µM (inactive); with ACHN, > 100 µM (inactive); with UO-31 it was > 100 µM (inactive). In addition, the GI50 in the test with CAKI-1 is > 100 µM (inactive).

Take `COc1ccc(NC(=O)CSc2nnc(-c3ccc(/N=C\c4ccc(Cl)cc4)cc3)o2)cc1`: the GI50 in the test with KM12 was 29.9 µM (inactive); in the test on HL-60, 4.85 µM (inactive); in the test with NCI/ADR-RES, 42.3 µM (inactive); in the test with IGROV-1, 39.5 µM (inactive); in the test with A498 it was > 100 µM (inactive); with Hs-578T, 77.6 µM (inactive). The GI50 in the test on MDA-MB-435 was 34 µM (inactive); in the test on NCI-H522, 26.7 µM (inactive); in the test on SNB-19, 29.9 µM (inactive); in the test on LOX IMVI, 7.98 µM (inactive); in the test with BT-549, 17 µM (inactive); in the test with RXF 393, > 69.7 µM (inactive). The GI50 was 24.8 µM (inactive) in the test on U-251; 52.8 µM (inactive) with HCC 2998; 34 µM (inactive) in the test with Malme-3M; 37.8 µM (inactive) with 786-0; > 52.4 µM (inactive) in the test on ACHN; > 54.7 µM (inactive) with UO-31.
